Measurements from patent US12473328.
Like-named read-outs stand apart in the source and are kept apart here.

Experiments:
[1] = resin
[2] = disulfide bond; 44-membered ring; resin; 3 steps
[3] = disulfide bond, 20-membered ring
[4] = crosslinker bond, 30-membered ring

Question: With H-CYFQNCPRG-NH2 as the substance, how does the ring closure, conversion [1, 3] read?
Answer: Its ring closure, conversion is 95%.

Question: For “H-KCNTATCATQRLANFLVHSSNFGPILPPTNVGSNTY-NH2”, which ring closure, conversion [1, 3] is on record?
Answer: The ring closure, conversion was 99%.

Question: Which ring closure, conversion ([1]; crosslinker bond, 31-membered ring) does the source give for H-ACREGFLRCLHRPTVCNG-H2 here?
Answer: Its ring closure, conversion is 99%.

Question: For H-VRCPGAAHHADSLC-NH2, which ring closure, conversion ([1]; disulfide bond, 38-membered ring) is on record?
Answer: Its ring closure, conversion is 99%.

Question: For H-ACYNEFGCEDFYDICA-NH2, which ring closure, conversion [1, 4] is on record?
Answer: Its ring closure, conversion is 99%.

Question: For H-CRVPGDAHHADSLC-NH2, which ring closure, conversion ([1]; crosslinker bond, 49-membered ring) is on record?
Answer: The ring closure, conversion was 99%.

Question: And the ring closure, conversion ([1]; disulfide bond, 44-membered ring)?
Answer: The ring closure, conversion was 22%.

Question: What about the ring closure, crude yield [2] of the same substance?
Answer: The ring closure, crude yield was 22%.

Question: With H-ACSWPARCLHQDLCA-NH2 as the substance, how does the ring closure, conversion [1, 4] read?
Answer: The ring closure, conversion was 99%.

Question: With H-VRVPGCAHCADSLY-NH2 as the substance, how does the ring closure, conversion ([1]; crosslinker bond, 19-membered ring) read?
Answer: Its ring closure, conversion is 99%.
